Laboratory results from patent US11168073B2, “3,3-difluoroallylamines or salts thereof and pharmaceutical compositions comprising the same” (YUHAN CORPORATION, priority 2018, dated 2021).
Counter-ions that a name gives are not always drawn.

What was measured:
Format in all cases: biochemical
recombinant human VAP-1 = biological target: T1, recombinant human VAP-1 (Homo sapiens, UniProt Q16853); assay: Activity evaluation on recombinant human VAP-1 (Amplex Red/HRP-coupled hydrogen peroxide assay, benzylamine substrate); conditions: recombinant human VAP-1, benzylamine substrate; read-out: Inhibitory Activity (IC50, nM) human VAP-1
T1 construct: purchased R&D systems
T1 sequence (Q16853 1-763): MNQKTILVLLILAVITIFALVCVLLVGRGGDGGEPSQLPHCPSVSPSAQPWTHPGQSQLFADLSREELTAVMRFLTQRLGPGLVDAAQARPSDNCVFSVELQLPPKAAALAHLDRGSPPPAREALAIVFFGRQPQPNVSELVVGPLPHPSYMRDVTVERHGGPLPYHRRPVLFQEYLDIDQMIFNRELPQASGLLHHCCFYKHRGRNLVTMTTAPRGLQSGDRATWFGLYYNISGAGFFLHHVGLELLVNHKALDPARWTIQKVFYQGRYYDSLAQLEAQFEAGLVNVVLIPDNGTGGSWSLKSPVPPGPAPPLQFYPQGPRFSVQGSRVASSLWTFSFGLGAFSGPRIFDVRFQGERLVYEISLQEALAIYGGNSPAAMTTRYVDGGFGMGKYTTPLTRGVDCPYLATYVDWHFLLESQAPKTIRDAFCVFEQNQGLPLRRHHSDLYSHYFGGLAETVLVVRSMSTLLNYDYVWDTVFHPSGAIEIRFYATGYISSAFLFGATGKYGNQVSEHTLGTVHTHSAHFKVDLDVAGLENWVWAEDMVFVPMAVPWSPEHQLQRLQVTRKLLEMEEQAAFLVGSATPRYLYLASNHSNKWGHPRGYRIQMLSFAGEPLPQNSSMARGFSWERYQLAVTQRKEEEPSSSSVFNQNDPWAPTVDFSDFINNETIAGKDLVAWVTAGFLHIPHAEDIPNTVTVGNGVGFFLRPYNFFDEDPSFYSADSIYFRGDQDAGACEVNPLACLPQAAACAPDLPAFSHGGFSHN
Summary of the method: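 Recombinant human VAP-1 in 50 mM sodium phosphate pH 7.4 preincubated 30 min at 37 °C with compound (8-point 1:3 series, <1% DMSO), then 1 mM benzylamine, 200 uM Amplex Red, 1 U/mL HRP added. H2O2-derived resorufin fluorescence (ex 544/em 590) followed 1–2 h; IC50 from four-parameter fit of rate inhibition.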

[1] = biological target: T2, recombinant human DAO (diamine oxidase) (Homo sapiens, UniProt P19801); assay: Activity evaluation on recombinant human DAO (Amplex Red/HRP-coupled assay, 1 mM putrescine substrate); conditions: 1 mM putrescine substrate, read-out: Inhibitory Activity (IC50, nM) DAO
T2 construct: purchased R&D systems
T2 sequence (P19801 20-751): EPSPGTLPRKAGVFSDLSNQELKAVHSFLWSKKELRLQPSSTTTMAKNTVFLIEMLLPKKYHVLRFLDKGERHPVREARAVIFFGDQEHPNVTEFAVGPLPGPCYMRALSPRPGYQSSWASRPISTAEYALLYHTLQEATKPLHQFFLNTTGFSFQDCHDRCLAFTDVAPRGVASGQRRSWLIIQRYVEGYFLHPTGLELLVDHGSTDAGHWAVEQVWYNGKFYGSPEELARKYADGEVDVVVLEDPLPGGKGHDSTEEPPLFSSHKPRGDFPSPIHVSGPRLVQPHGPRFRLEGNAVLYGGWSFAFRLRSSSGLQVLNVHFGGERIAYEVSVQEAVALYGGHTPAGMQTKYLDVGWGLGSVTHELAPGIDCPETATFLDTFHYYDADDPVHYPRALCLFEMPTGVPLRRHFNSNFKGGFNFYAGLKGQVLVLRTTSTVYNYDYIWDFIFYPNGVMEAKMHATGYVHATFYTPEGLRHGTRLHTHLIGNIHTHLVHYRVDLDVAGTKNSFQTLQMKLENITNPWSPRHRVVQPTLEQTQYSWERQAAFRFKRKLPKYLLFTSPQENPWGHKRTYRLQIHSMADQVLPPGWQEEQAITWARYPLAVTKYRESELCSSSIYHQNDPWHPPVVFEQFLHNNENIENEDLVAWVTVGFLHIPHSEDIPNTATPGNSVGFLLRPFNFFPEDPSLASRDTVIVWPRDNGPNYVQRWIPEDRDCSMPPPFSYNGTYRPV
Summary of the method: (§1)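 Enzyme activity was measured as fluorescence rate (ex 544, em 590 nm) from resorufin formed by HRP-coupled H2O2 oxidation of 200 uM Amplex Red. Compounds were first incubated 30 min at 37 °C with enzyme at pH 7.4; substrates were 0.5 mM tyramine (MAO-A), 1 mM benzylamine (MAO-B) and 1 mM putrescine (DAO).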

[2] = biological target: T3, recombinant human MAO-B (monoamine oxidase-B) (Homo sapiens, UniProt P27338); assay: Activity evaluation on recombinant human MAO-B (Amplex Red/HRP-coupled assay, 1 mM benzylamine substrate); conditions: 1 mM benzylamine substrate, read-out: Inhibitory Activity (IC50, nM) MAO-B
T3 construct: purchased Sigma-Aldrich
T3 sequence (P27338 1-520): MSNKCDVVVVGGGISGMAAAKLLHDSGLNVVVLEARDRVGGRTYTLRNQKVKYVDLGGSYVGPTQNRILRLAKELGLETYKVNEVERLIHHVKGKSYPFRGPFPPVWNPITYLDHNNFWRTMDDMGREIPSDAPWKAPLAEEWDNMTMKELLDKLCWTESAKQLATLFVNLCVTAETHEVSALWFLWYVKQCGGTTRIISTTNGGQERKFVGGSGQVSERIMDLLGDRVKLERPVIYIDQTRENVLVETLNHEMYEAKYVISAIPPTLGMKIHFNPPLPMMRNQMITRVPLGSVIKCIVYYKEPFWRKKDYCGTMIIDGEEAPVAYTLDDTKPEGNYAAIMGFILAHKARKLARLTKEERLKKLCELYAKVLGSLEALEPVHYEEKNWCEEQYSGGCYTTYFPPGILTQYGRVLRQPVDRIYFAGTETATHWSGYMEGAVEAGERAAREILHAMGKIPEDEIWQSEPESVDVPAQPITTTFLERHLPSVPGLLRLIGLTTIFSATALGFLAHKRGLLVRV
Summary of the method: as §1

[3] = biological target: T4, recombinant human MAO-A (monoamine oxidase-A) (Homo sapiens, UniProt P21397); assay: Activity evaluation on recombinant human MAO-A (Amplex Red/HRP-coupled assay, 0.5 mM tyramine substrate); conditions: 0.5 mM tyramine substrate, read-out: Inhibitory Activity (IC50, nM) MAO-A
T4 construct: purchased Sigma-Aldrich
T4 sequence (P21397 1-527): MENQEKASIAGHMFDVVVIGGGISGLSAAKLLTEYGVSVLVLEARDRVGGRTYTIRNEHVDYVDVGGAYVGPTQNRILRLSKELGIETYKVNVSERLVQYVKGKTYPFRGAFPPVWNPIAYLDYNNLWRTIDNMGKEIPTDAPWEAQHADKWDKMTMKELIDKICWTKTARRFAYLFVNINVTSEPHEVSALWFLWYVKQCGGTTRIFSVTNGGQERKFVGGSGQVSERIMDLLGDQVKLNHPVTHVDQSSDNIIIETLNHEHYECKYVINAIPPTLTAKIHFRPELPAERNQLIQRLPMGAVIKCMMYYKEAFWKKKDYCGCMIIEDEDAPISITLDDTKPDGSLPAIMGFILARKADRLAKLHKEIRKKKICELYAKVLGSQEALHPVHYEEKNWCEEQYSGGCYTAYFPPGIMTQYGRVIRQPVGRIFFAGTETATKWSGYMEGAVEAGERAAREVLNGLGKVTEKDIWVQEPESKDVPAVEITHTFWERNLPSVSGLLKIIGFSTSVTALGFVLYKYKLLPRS
Summary of the method: as §1

Row | Compound | IC50 (recombinant human VAP-1) [nM] | IC50 [1] [nM] | IC50 [2] [nM] | IC50 [3] [nM]
1 | CCn1cc(-c2ccccc2Cn2cnn(CC(CN)=C(F)F)c2=O)cn1 [Example 278, 2-[2-(aminomethyl)-3,3-difluoro-allyl]-4-[[2-(1-ethylpyrazol-4-yl)phenyl]methyl]-1,2,4-triazol-3-one trifluoroacetate] | 17 | > 100000 | > 100000 | > 100000
2 | CS(=O)(=O)c1ccc(-c2ccccc2Cn2cnn(CC(CN)=C(F)F)c2=O)cc1 [Example 279, 2-[2-(aminomethyl)-3,3-difluoro-allyl]-4-[[2-(4-methylsulfonylphenyl)phenyl]methyl]-1,2,4-triazol-3-one Trifluoroacetate] | > 100 | > 100000 | > 100000 | > 100000
3 | NCC(Cn1ncn(Cc2ccccc2-c2ccc(N3CCNCC3)cc2)c1=O)=C(F)F [Example 280, 2-[2-(aminomethyl)-3,3-difluoro-allyl]-4-[[2-(4-piperazin-1-ylphenyl)phenyl]methyl]-1,2,4-triazol-3-one Ditrifluoroacetate] | 2380 | > 100000 | > 100000 | > 100000
4 | CN(C)c1ccc(-c2ccccc2Cn2cnn(CC(CN)=C(F)F)c2=O)cn1 [Example 281, 2-[2-(aminomethyl)-3,3-difluoro-allyl]-4-[[2-[6-(dimethylamino)-3-pyridyl]phenyl]methyl]-1,2,4-triazol-3-one Trifluoroacetate] | 307 | 4860 | > 100000 | > 100000
5 | NCC(Cn1ncn(Cc2ccccc2-c2ccc3c(c2)OCO3)c1=O)=C(F)F [Example 282, 2-[2-(aminomethyl)-3,3-difluoro-allyl]-4-[[2-(1,3-benzodioxol-5-yl)phenyl]methyl]-1,2,4-triazol-3-one Trifluoroacetate] | 28 | > 100000 | > 100000 | > 100000
6 | Cc1cc(-c2ccccc2Cn2cnn(CC(CN)=C(F)F)c2=O)cc2c1NC(=O)CC2 [Example 283, 6-[2-[[1-[2-(aminomethyl)-3,3-difluoro-allyl]-5-oxo-1,2,4-triazol-4-yl]methyl]phenyl]-8-methyl-3,4-dihydro-1H-quinolin-2-one Trifluoroacetate] | 154 | > 100000 | > 100000 | > 100000
7 | CN1C(=O)CCc2cc(-c3ccccc3Cn3cnn(CC(CN)=C(F)F)c3=O)ccc21 [Example 284, 6-[2-[[1-[2-(aminomethyl)-3,3-difluoro-allyl]-5-oxo-1,2,4-triazol-4-yl]methyl]phenyl]-1-methyl-3,4-dihydroquinolin-2-one trifluoroacetate] | 148 | 66400 | > 100000 | > 100000
8 | CCn1cc(-c2ccccc2Cn2cnn(CC(CN)=C(F)F)c2=O)ccc1=O [Example 285, 5-[2-[[1-[2-(aminomethyl)-3,3-difluoro-allyl]-5-oxo-1,2,4-triazol-4-yl]methyl]phenyl]-1-ethyl-pyridin-2-one Trifluoroacetate] | > 100 | > 100000 | > 100000 | > 100000
9 | CCn1cc(-c2ccc(-c3csc(Cn4cnn(CC(CN)=C(F)F)c4=O)c3)cc2)cn1 [Example 288, 2-[2-(aminomethyl)-3,3-difluoro-allyl]-4-[[4-[4-(1-ethylpyrazol-4-yl)phenyl]-2-thienyl]methyl]-1,2,4-triazol-3-one Trifluoroacetate] | 2.6 | 3780 | 3230 | 2910

Now those with a lower IC50 (recombinant human VAP-1), led by results:

Row | IC50 (recombinant human VAP-1) [nM] | IC50 [1] [nM] | IC50 [2] [nM] | IC50 [3] [nM] | Compound
10 | 1.4 | 2480 | 3230 | 2620 | CCn1cc(-c2ccc(-c3ccc(Cn4cnn(CC(CN)=C(F)F)c4=O)s3)cc2)cn1 [Example 286, 2-[2-(aminomethyl)-3,3-difluoro-allyl]-4-[[5-[4-(1-ethylpyrazol-4-yl)phenyl]-2-thienyl]methyl]-1,2,4-triazol-3-one Trifluoroacetate]
11 | 0.7 | 13900 | 12100 | > 100000 | CCn1cc(-c2cccc(-c3ccc(Cn4cnn(CC(CN)=C(F)F)c4=O)s3)c2)cn1 [Example 287, 2-[2-(aminomethyl)-3,3-difluoro-allyl]-4-[[5-[3-(1-ethylpyrazol-4-yl)phenyl]-2-thienyl]methyl]-1,2,4-triazol-3-one Trifluoroacetate]
12 | 0.6 | 14500 | 12000 | > 100000 | CCn1cc(-c2cccc(-c3csc(Cn4cnn(CC(CN)=C(F)F)c4=O)c3)c2)cn1 [Example 289, 2-[2-(aminomethyl)-3,3-difluoro-allyl]-4-[[4-[3-(1-ethylpyrazol-4-yl)phenyl]-2-thienyl]methyl]-1,2,4-triazol-3-one Trifluoroacetate]
13 | 0.7 | 2380 | 1190 | > 100000 | CCn1cc(-c2ccc(-c3cnc(-n4cnn(CC(CN)=C(F)F)c4=O)c(C)c3)cc2)cn1 [Example 290, 2-[2-(aminomethyl)-3,3-difluoro-allyl]-4-[5-[4-(1-ethylpyrazol-4-yl)phenyl]-3-methyl-2-pyridyl]-1,2,4-triazol-3-one Trifluoroacetate]
